Patent US20120070377A1, “COMPOUNDS AND BIOLOGICAL MATERIALS AND USES THEREOF” (priority 2009, published 2012)

Key:
SKOV3 tumour = assay: Tumour uptake and tumour:blood ratio of radiolabelled photosensitisers and PICs; type: in vivo, BALB/c nude mice; conditions: mouse, in vivo
Method: (§1) Female BALB/c nude mice (aged 6-8 weeks old) were implanted with 10^7 SKOV3 tumour cells mixed in 0.1 ml of ice-cold matrigel subcutaneously and the tumours were allowed to grow for 3-6 weeks as xenografts. Mice were maintained in IVC cages (individually-vented cages) in a clean room. Samples were injected in a volume of 0.1 ml, intravenously via the lateral tail vein and the mice were maintained in low light with full food and water (irradiated). At various time points (1-24 hr), mice were culled by cardiac puncture under terminal anesthesia and blood and tissues collected. All the tissues were counted for radioactivity by gamma counting and weighed.
(§2) The PS (PPa and PPa-PEG) were chemically coupled to C6 scFv, radiolabelled with iodogen as before, but dialysed against 3×5 L of PBS to remove the free iodine and injected into BALB/c nude mice with SKOV3 tumours as above. Tissues were dissected and counted as above.
The tumours were counted for radioactivity and expressed as % of the injected dose/g of tumour tissue (FIG. 10).
The percentage PS in the tumour was divided by the percentage in the blood (gram for gram) to give a targeting or tumour:blood ratio (the higher the better). This plotted in FIG. 11. A high tumour:blood ratio means that there is more in the tumour compared to the blood (and other tissues). This is a function of tumour uptake and blood clearance (see FIGS. 9 and 10).

[1] = Skin photosensitivity in a murine model; type: in vivo; conditions: laser on the skin after 1 hour, monitored over 4 days, scale of 1-4
Method: FIG. 24: Skin photosensitivity of Foscan compared to compound II. Photosensitisers were administered at t=0 hrs and a laser shone on the skin after 1 hour. The skin reaction was followed over time and the results were plotted according to the scale shown.
Skin photosensitivity is an important issue to be resolved in PDT. […] In a murine model, Foscan was administered at clinical doses (ref 109) and compared to compound 11 and a photo-immunoconjugate of compound 11. Skin photosensitivity was monitored over 4 days by observation according to a scale of 1-4 (FIG. 24).

KB = assay: In vitro phototoxicity (MTS cell titre assay after 670 nm laser light), Example 5; type: cell-based, human; conditions: Homo sapiens, KB; free photosensitisers; 2 hrs incubation, 670 nm laser 0.5 W 10 s, MTS after 48 h
Method: (§3) Two different human-derived tumour cell lines: SKOV3 and KB were obtained from the European Collection of Cell Cultures (ECACC) and cultured in Dulbecco's modified Eagle's medium (DMEM) with 10% foetal bovine serum, penicillin and streptomycin antibiotics (1%) and passaged when 70-90% confluent in 75 cm^2 flasks. The cells were maintained at 37° C. in a humidified 5% CO2 atmosphere.
(§4) Cells were trypsinised and seeded at 2×10^3 cells/well for KB and 3×10^3 cells/well for SKOV3 into 96-well plates and incubated over two nights for KB and overnight for SKOV3 at 37° C. and 5% CO2. The cells were then washed once in phenol red free DMEM and appropriately diluted photosensitiser solution or photo-immunoconjugate (in DMEM, 2% DMSO) was added to the appropriate wells under subdued lighting. DMEM or Triton X-100 (1%) were added to control wells. After 2 hrs incubation in the dark at 37° C., 5% CO2, cells were washed three times with PBS and 100 μl of DMEM was added to each well.
(§5) Wells were exposed to light from a High Powered-Devices 670 nm laser used at 0.5 W for 10 s. Controls included wells with photosensitiser added and no exposure to light, or DMEM added and exposure to light as well as Triton X-100 (1%) with or without light exposure. Cells that had no photosensitiser added and no exposure to light were included as overall controls. Cells were incubated in the dark at 37° C., 5% CO2 for 48 h after which time, a cell titre assay was performed according to the manufacturer's instructions. The Promega Cell Titre-96 system was used which involves the conversion by live cells of a tetrazolium compound (MTS) into a formazan dye which is measurable by its absorbance at 490 nm.

SKOV3 = assay: as above; type: cell-based, human; conditions: Homo sapiens, SK-OV-3; free photosensitisers; 2 hrs incubation, 670 nm laser 0.5 W 10 s, MTS after 48 h
Method: as §3, §4, §5

[2] = Biodistribution and blood clearance of 125I-radiolabelled photosensitisers and PICs in SKOV3 tumour mice; type: in vivo, BALB/c nude mice; conditions: mouse, in vivo, iv
Method: 0.1 mg of photosensitiser was dissolved in 0.5 ml PBS. Radiolabelled Iodine (Na^125I, ICN chemicals) was added to 0.1 ml of PBS in Iodogen-coated tubes (Pierce chemicals) and allowed to activate. The activated iodine-125 was transferred to the photosensitiser and allowed to react for 5-10 minutes at room temperature. The radiolabelled photosensitiser was separated from free iodine on a mini silica gel column eluting with 100% PBS to remove the iodinating agent followed by a gradual switch from 10% MeOH/PBS to 100% MeOH with the radiolabelled photosenstiser eluting with 10% MeOH/chloroform. The radiolabelled solutions of the photosensitiser was allowed to air-dry and re-suspended in PBS containing 2% DMSO.
as §1
The results are shown as a percentage of radioactive material injected per gram of tissue.
as §2

For `CCC1=C(C)c2cc3[nH]c(c(C)c3CC)c(C#CCCCC(=O)ON3C(=O)CCC3=O)c3nc(c4c5[nH]c(cc1n2)c(C)c5C(=O)C4)[C@@H](CCC(=O)OCc1cc(OCCOCCOCCOC)c(OCCOCCOCCOC)c(OCCOCCOCCOC)c1)[C@@H]3C` [compound 11, Meso 5-Ethynylhexanoyl succinimido ester pyropheophorbide a-3,4,5-(triethylene glycolmonomethylether) benzyl ester], which “tumour accumulation relative to the level of PPa” value (SKOV3 tumour) is on record?
The value was “about ⅓”.

And the skin photosensitivity [1]?
Its skin photosensitivity is “little or no skin sensitivity”.

What about the IC50 (KB) of the same molecule?
The IC50 was 1.2 ± 0.5 µM.

And the IC50 (SKOV3)?
Its IC50 is 1.1 µM.

And the blood clearance [2]?
Its blood clearance is “faster than PPa”.
